For one assay, the target named is T1, human FPR2 (Homo sapiens, UniProt P25090).
T1 sequence (P25090 1-351): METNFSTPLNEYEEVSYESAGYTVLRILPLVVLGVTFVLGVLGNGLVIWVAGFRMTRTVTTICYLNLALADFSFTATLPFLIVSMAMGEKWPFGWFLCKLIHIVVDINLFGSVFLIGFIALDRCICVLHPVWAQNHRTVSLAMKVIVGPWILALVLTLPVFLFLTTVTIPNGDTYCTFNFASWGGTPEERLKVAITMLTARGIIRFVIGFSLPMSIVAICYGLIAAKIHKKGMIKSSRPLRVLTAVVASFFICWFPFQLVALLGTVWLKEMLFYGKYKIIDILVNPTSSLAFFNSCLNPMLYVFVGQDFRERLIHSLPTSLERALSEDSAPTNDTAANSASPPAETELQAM
As to the kind of experiment: FPR2 cyclic adenosine monophosphate (cAMP) assay. Format: cell-based. As to conditions: CHO cells overexpressing human FPR2; forskolin 5 μM; inhibition of cAMP production; HTRF; read-out: hFPR2 cAMP2 EC50. The source says:
(§1) N-formyl peptide receptors (FPRs) are a family of chemo attractant receptors that facilitate leukocyte response during inflammation. FPRs belong to the seven-transmembrane G protein-coupled receptor superfamily and are linked to inhibitory G-proteins (Gi). Three family members (FPR1, FPR2 and FPR3) have been identified in humans and are predominantly found in myeloid cells with varied distribution and have also been reported in multiple organs and tissues. After agonist binding, the FPRs activate a multitude of physiological pathways, such as intra cellular signaling transduction, Ca^2+ mobilization and transcription. The family interacts with a diverse set of ligands that includes proteins, polypeptides and fatty acid metabolites which activate both pro-inflammatory and pro-resolution downstream responses. FPR2 and FPR1 Cyclic Adenosine Monophosphate (cAMP) Assays were used to measure the in vitro activity of the compounds disclosed in this application.
(§2) FPR2 and FPR1 Cyclic Adenosine Monophosphate (cAMP) Assays. A mixture of forskolin (5 μM final for FPR2 or 10 μM final for FPR1) and IBMX (200 μM final) were added to 384-well Proxiplates (Perkin-Elmer) pre-dotted with test compounds in DMSO (1% final) at final concentrations in the range of 0.020 nM to 100 μM. Chinese Hamster Ovary cells (CHO) overexpressing human FPR1 or human FPR2 receptors were cultured in F-12 (Ham's) medium supplemented with 10% qualified FBS, 250 μg/mL zeocin and 300 μg/mL hygromycin (Life Technologies). Reactions were initiated by adding 2,000 human FPR2 cells per well or 4,000 human FPR1 cells per well in Dulbecco's PBS (with calcium and magnesium) (Life Technologies) supplemented with 0.1% BSA (Perkin-Elmer). The reaction mixtures were incubated for 30 min at rt. The level of intracellular cAMP was determined using the HTRF HiRange cAMP assay reagent kit (Cisbio) according to manufacturer's instruction. Solutions of cryptate conjugated anti-cAMP and d2 flurorophore-labeled cAMP were made in a supplied lysis buffer separately. Upon completion of the reaction, the cells were lysed with equal volume of the d2-cAMP solution and anti-cAMP solution. […] The potency and activity of a compound to inhibit cAMP production was then determined by fitting to a 4-parametric logistic equation from a plot of cAMP level versus compound concentrations.
On the technique in general: Cyclic AMP is a second messenger, typically raised through Gs and lowered through Gi signalling.
As for `COc1cc(F)c(-c2c(NC(=O)c3ccc(OC(F)F)cc3)c(=O)n(Cc3nnc(C(C)C)o3)n2C)c(F)c1` [Example 57, N-[5-(2,6-difluoro-4-methoxyphenyl)-1-methyl-3-oxo-2-{[5-(propan-2-yl)-1,3,4-oxadiazol-2-yl]methyl}-2,3-dihydro-1H-pyrazol-4-yl]-4-(difluoromethoxy)benzamide], the concentration for a half-maximal effect (EC50) (in general, the midpoint of the concentration-response curve) was 150 nM. For the compound `COc1cc(F)c(-c2c(NC(=O)c3ccc(OC(F)(F)F)cc3)c(=O)n(-c3ccc(F)cc3)n2C)c(F)c1` [Example 10, N-[5-(2,6-difluoro-4-methoxyphenyl)-2-(4-fluorophenyl)-1-methyl-3-oxo-2,3-dihydro-1H-pyrazol-4-yl]-4-(trifluoromethoxy)benzamide], the concentration giving a half-maximal response (EC50) was determined as 14 nM.

For `COc1cc(N2CC[C@@H](O)C2)nc(-n2c(=O)c(NC(=O)c3ccc(OC(F)F)cc3)c(-c3c(F)cc(OC)cc3F)n2C)c1` [Example 95, N-[5-(2,6-difluoro-4-methoxyphenyl)-2-{6-[(3R)-3-hydroxypyrrolidin-1-yl]-4-methoxypyridin-2-yl}-1-methyl-3-oxo-2,3-dihydro-1H-pyrazol-4-yl]-4-(difluoromethoxy)benzamide], the concentration for a half-maximal effect (EC50) was found to be 8 nM. As for `COc1cc(CO)nc(-n2c(=O)c(NC(=O)c3ccc(OC(F)F)cc3)c(-c3c(F)cc(OC)cc3F)n2C)c1` [Example 90, N-[5-(2,6-difluoro-4-methoxyphenyl)-2-[6-(hydroxymethyl)-4-methoxypyridin-2-yl]-1-methyl-3-oxo-2,3-dihydro-1H-pyrazol-4-yl]-4-(difluoromethoxy)benzamide], the EC50 is 8 nM. For `COc1cc(C2CCNCC2)nc(-n2c(=O)c(NC(=O)c3ccc(OC(F)F)cc3)c(-c3c(F)cc(OC)cc3F)n2C)c1` [Example 367, N-(5-(2,6-Difluoro-4-methoxyphenyl)-2-(4-methoxy-6-(piperidin-4-yl)pyridin-2-yl)-1-methyl-3-oxo-2,3-dihydro-1H-pyrazol-4-yl)-4-(difluoromethoxy)benzamide], the EC50 was determined as 1 nM. With `COc1cc(N2CC[C@H](F)C2)nc(-n2c(=O)c(NC(=O)c3ccc(OC(F)F)cc3)c(-c3c(F)cc(OC)cc3F)n2C)c1` [Example 98, N-[5-(2,6-difluoro-4-methoxyphenyl)-2-{6-[(3S)-3-fluoropyrrolidin-1-yl]-4-methoxypyridin-2-yl}-1-methyl-3-oxo-2,3-dihydro-1H-pyrazol-4-yl]-4-(difluoromethoxy)benzamide], the EC50 amounted to 6 nM.

Regarding `COc1cc(N2CC(C)(O)C2)nc(-n2c(=O)c(NC(=O)c3ccc(OC(F)F)cc3)c(-c3c(F)cc(OC)cc3F)n2C)c1` [Example 96, N-[5-(2,6-difluoro-4-methoxyphenyl)-2-[6-(3-hydroxy-3-methylazetidin-1-yl)-4-methoxypyridin-2-yl]-1-methyl-3-oxo-2,3-dihydro-1H-pyrazol-4-yl]-4-(difluoromethoxy)benzamide], the 50% effective concentration (EC50) was 7 nM. Still for that read-out and setting: under `COc1cc(N2CC(OC(C)C)C2)nc(-n2c(=O)c(NC(=O)c3ccc(OC(F)F)cc3)c(-c3c(F)cc(OC)cc3F)n2C)c1` [Example 106, N-[5-(2,6-difluoro-4-methoxyphenyl)-2-{4-methoxy-6-[3-(propan-2-yloxy)azetidin-1-yl]pyridin-2-yl}-1-methyl-3-oxo-2,3-dihydro-1H-pyrazol-4-yl]-4-(difluoromethoxy)benzamide] stands 5 nM; under `COc1cc(F)c(-c2c(NC(=O)c3ccc(OC(F)F)cc3)c(=O)n(-c3cc(C(F)F)ccn3)n2C)c(F)c1` [Example 76, N-[5-(2,6-difluoro-4-methoxyphenyl)-2-[4-(difluoromethyl)pyridin-2-yl]-1-methyl-3-oxo-2,3-dihydro-1H-pyrazol-4-yl]-4-(difluoromethoxy)benzamide], 12 nM; under `COc1cc(N2C3CCC2CN(C)C3)nc(-n2c(=O)c(NC(=O)c3ccc(OC(F)F)cc3)c(-c3c(F)cc(OC)cc3F)n2C)c1` [Example 105, N-[5-(2,6-difluoro-4-methoxyphenyl)-2-(4-methoxy-6-{3-methyl-3,8-diazabicyclo[3.2.1]octan-8-yl}pyridin-2-yl)-1-methyl-3-oxo-2,3-dihydro-1H-pyrazol-4-yl]-4-(difluoromethoxy)benzamide], 1 nM.

In the case of `COc1cc(N2CCC(F)(F)C2)nc(-n2c(=O)c(NC(=O)c3ccc(OC(F)F)cc3)c(-c3c(F)cc(OC)cc3F)n2C)c1` [Example 99, N-[5-(2,6-difluoro-4-methoxyphenyl)-2-[6-(3,3-difluoropyrrolidin-1-yl)-4-methoxypyridin-2-yl]-1-methyl-3-oxo-2,3-dihydro-1H-pyrazol-4-yl]-4-(difluoromethoxy)benzamide], the EC50 was determined as 4 nM.

On to `COc1cc(N2CCCC2)nc(-n2c(=O)c(NC(=O)c3ccc(OC(F)F)cc3)c(-c3c(F)cc(OC)cc3F)n2C)c1` [Example 91, N-(5-(2,6-difluoro-4-methoxyphenyl)-2-(4-methoxy-6-(pyrrolidin-1-yl)pyridin-2-yl)-1-methyl-3-oxo-2,3-dihydro-1H-pyrazol-4-yl)-4-(difluoromethoxy)benzamide], for which the EC50 was found to be 20 nM. As for `COc1cc(NCCO)nc(-n2c(=O)c(NC(=O)c3ccc(OC(F)F)cc3)c(-c3c(F)cc(OC)cc3F)n2C)c1` [Example 94, N-[5-(2,6-difluoro-4-methoxyphenyl)-2-{6-[(2-hydroxyethyl)amino]-4-methoxypyridin-2-yl}-1-methyl-3-oxo-2,3-dihydro-1H-pyrazol-4-yl]-4-(difluoromethoxy)benzamide], the half-maximal effective concentration (EC50) came to 6 nM.

Take `COc1cc(OC)cc(-n2c(=O)c(NC(=O)c3ccc(OC(F)F)cc3)c(-c3c(F)cc(OC)cc3F)n2C)c1` [Example 108]: the concentration for a half-maximal effect (EC50) worked out at 3 nM. Take `COc1cc(F)c(-c2c(NC(=O)c3ccc(OC(F)F)cc3)c(=O)n(-c3cccc(N4C[C@@H](C)N(C)[C@@H](C)C4)n3)n2C)c(F)c1` [Example 103, N-[5-(2,6-difluoro-4-methoxyphenyl)-1-methyl-3-oxo-2-{6-[(3R,5S)-3,4,5-trimethylpiperazin-1-yl]pyridin-2-yl}-2,3-dihydro-1H-pyrazol-4-yl]-4-(difluoromethoxy)benzamide]: the 50% effective concentration (EC50) is 1 nM. As for `COc1cc(F)c(-c2c(NC(=O)c3ccc(OC(F)F)cc3)c(=O)n(-c3cccc(N4CCN(CCO)CC4)n3)n2C)c(F)c1` [Example 107, N-[5-(2,6-difluoro-4-methoxyphenyl)-2-{6-[4-(2-hydroxyethyl)piperazin-1-yl]pyridin-2-yl}-1-methyl-3-oxo-2,3-dihydro-1H-pyrazol-4-yl]-4-(difluoromethoxy)benzamide], the concentration giving a half-maximal response (EC50) is 5 nM. Consider `COc1cc(N2CCN(C)CC2)nc(-n2c(=O)c(NC(=O)c3ccc(OC(F)F)cc3)c(-c3c(F)cc(OC)cc3F)n2C)c1` [Example 101, N-[5-(2,6-difluoro-4-methoxyphenyl)-2-[4-methoxy-6-(4-methylpiperazin-1-yl)pyridin-2-yl]-1-methyl-3-oxo-2,3-dihydro-1H-pyrazol-4-yl]-4-(difluoromethoxy)benzamide], for which the EC50 amounted to 3 nM.

Another assay has as its target T2, human FPR1 (Homo sapiens, UniProt P21462).
T2 sequence (P21462 1-350): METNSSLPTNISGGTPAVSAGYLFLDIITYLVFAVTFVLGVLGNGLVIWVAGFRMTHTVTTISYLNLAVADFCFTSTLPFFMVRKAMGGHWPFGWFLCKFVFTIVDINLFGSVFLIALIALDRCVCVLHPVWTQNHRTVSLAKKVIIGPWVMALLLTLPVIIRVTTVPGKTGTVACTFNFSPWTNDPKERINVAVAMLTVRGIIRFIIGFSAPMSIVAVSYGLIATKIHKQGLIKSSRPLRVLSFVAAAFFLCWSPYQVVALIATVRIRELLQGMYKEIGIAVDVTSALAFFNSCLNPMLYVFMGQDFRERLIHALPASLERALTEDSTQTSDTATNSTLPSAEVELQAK
As to the kind of experiment: FPR1 cyclic adenosine monophosphate (cAMP) assay. Format: cell-based. The following applies: CHO cells overexpressing human FPR1; forskolin 10 μM; inhibition of cAMP production; HTRF; read-out: hFPR1 cAMP2 EC50.
Description: as §1, §2
Turning to `COc1cc(F)c(-c2c(NC(=O)c3ccc(OC(F)F)cc3)c(=O)n(Cc3nnc(C(C)C)o3)n2C)c(F)c1` [Example 57, N-[5-(2,6-difluoro-4-methoxyphenyl)-1-methyl-3-oxo-2-{[5-(propan-2-yl)-1,3,4-oxadiazol-2-yl]methyl}-2,3-dihydro-1H-pyrazol-4-yl]-4-(difluoromethoxy)benzamide], the EC50 came out at 380 nM.

As for `COc1cc(F)c(-c2c(NC(=O)c3ccc(OC(F)(F)F)cc3)c(=O)n(-c3ccc(F)cc3)n2C)c(F)c1` [Example 10, N-[5-(2,6-difluoro-4-methoxyphenyl)-2-(4-fluorophenyl)-1-methyl-3-oxo-2,3-dihydro-1H-pyrazol-4-yl]-4-(trifluoromethoxy)benzamide], the concentration giving a half-maximal response (EC50) turned out to be 920 nM. For `COc1cc(F)c(-c2c(NC(=O)c3ccc(OC(F)F)cc3)c(=O)n(-c3cc(OC(C)C)cc(OCCO)n3)n2C)c(F)c1` [Example 378, N-(5-(2,6-Difluoro-4-methoxyphenyl)-2-(6-(2-hydroxyethoxy)-4-isopropoxypyridin-2-yl)-1-methyl-3-oxo-2,3-dihydro-1H-pyrazol-4-yl)-4-(difluoromethoxy)benzamide], the EC50 came to 25 nM.
